{"source": "patent US20030175680A1", "about": "“Methods of treating and preventing bone loss” (priority 2002, published 2003)", "key": {"[1]": {"tested_on": "human mesenchymal stem cells (hMSC)", "experiment": "Alkaline phosphatase activity in hMSC cultures induced to differentiate into osteoblasts", "type": "cell-based", "settings": "for normalized activity of alkaline phosphatase: hMSC, second experimental set, inhibitors added on Day 1 or Day 11, FIG. 6; for alkaline phosphatase activity: hMSC cultured 9 days with 5-LO inhibitors, relative to DMSO, FIG. 8", "method": "(§1) In order to determine the ability of inhibitors of 15-lipoxygenase to stimulate bone formation and bone accretion, the ability of the 15-LO inhibitors to promote measures of differentiation of stem cells into bone forming cells (osteoblasts) was tested in vitro.\n(§2) Four to eight independent replicate cultures were prepared at each dose level. At the end of the experiments, the cultured cells were harvested by scraping the wells into the appropriate medium for further analysis of either alkaline phosphatase (Sigma kit#104-LL), or cellular calcium (Sigma kit#587-M). Cultures harvested for alkaline phosphatase assessment were harvested by scraping the cells and resuspending into 250 μL Tris buffered 0.1% Triton X-100, and then assayed either fresh or following freeze-thaw. Separate cultures to be assayed for total calcium content were scraped and resuspended into 250 μL 0.5M HCL. Results of these assays were normalized to total cellular DNA, thereby normalizing for differences in cell proliferation. At the same times that cultures were harvested for alkaline phosphatase and calcium, separate replicate cultures were harvested by scraping the cells and resuspending them in 250 μL Hank's Balanced Salt Solution, and cellular number assessed by DNA (DNeasy Tissue Kit, Qiagen cat#69506).\n[…] Three different sets of experiments were performed.\nThe plates were cultured for 14 days. The DNA-normalized activity of alkaline phosphatase is plotted in FIG. 5.\n(§3) Inhibitors were added either on Day 1 or Day 11. […] The normalized activity of alkaline phosphatase and calcium content is plotted in FIGS. 6 and 7, respectively.\n(§4) As a control for the specificity of 15-LO inhibition for the induction of osteoblast differentiation of stem cells in vitro, the third set of experiments studied eight replicates of standard lipoxygenase inhibitors recognized as more specific to the 5-LO enzyme, rather than the 15-LO enzyme. Zileuton (1,10, 50 uM, prepared at Roche as) Compound 5, AA-861 (1, 10, 50 uM, Sigma #A371 1) and Rev-5901 (15 uM, Sigma #R5523) were prepared fresh every 2-3 days and tested in the human osteoblast precursor cells."}, "[2]": {"tested_on": "human mesenchymal stem cells (hMSC)", "experiment": "Total calcium content of hMSC cultures induced to differentiate into osteoblasts", "type": "cell-based", "settings": "for calcium content: hMSC, second experimental set, inhibitors added on Day 1 or Day 11, FIG. 7; for culture calcium deposition (total calcium content): hMSC cultured 16 days with 5-LO inhibitors, relative to DMSO or 1,25-Vitamin D3, FIG. 9", "method": "as §1, §2, §3, §4"}, "[3]": {"tested_on": "Lck-IL4 transgenic mice", "experiment": "Lck-IL4 transgenic mouse model of osteoporosis: whole body and femoral bone parameters", "type": "in vivo", "settings": "Lck-IL4 mice fed Compound 2 150 mg/kg bid in food 84 days vs untreated Lck-IL4 controls", "method": "The ability of 15-lipoxygenase inhibitors to promote bone formation in vivo was assessed by measuring the ability of the inhibitors to improve bone parameters in a mouse model of osteoporosis. Constitutive expression of an Interleukin-4 transgene from the Lck gene promoter (Lck-IL4) in C57BL/6 mice results in a severe bone phenotype mimicking osteoporosis.\nMice were permitted access to one-half the daily food intake twice daily at approximately 12 h intervals and diet intake was monitored daily. Water was available ad libitum. The control groups received the same diet without Compound 2. All groups consumed food equally well over the course of the experiment. […]\nBone mineral measurements were determined by dual energy X-ray absorptiometry (DEXA). […]\nThe cross-sectional geometric parameters of the mid-diaphysis of the femora were determined using a portable x-ray microtomograph (Model 1074, Skyscan, Antwerp, Belgium). Scans were taken at […] intervals, and a slice located at the midpoint of the femur was analyzed for total area (FCSA), cortical area (Ct Ar) and medullary canal area (Ma Ar). In addition, using the pixels contained in the cortical region of the digital image, the radius from the centroid of the cross-section to the outer fiber in the anterior-posterior plane, the areal moment of inertia (Ixx) in the plane of bending and the average cortical thickness (Ct Th) were calculated. […]"}, "[4]": {"biological_target": "15-LO (UniProt P12530)", "sequence (P12530 whole entry)": "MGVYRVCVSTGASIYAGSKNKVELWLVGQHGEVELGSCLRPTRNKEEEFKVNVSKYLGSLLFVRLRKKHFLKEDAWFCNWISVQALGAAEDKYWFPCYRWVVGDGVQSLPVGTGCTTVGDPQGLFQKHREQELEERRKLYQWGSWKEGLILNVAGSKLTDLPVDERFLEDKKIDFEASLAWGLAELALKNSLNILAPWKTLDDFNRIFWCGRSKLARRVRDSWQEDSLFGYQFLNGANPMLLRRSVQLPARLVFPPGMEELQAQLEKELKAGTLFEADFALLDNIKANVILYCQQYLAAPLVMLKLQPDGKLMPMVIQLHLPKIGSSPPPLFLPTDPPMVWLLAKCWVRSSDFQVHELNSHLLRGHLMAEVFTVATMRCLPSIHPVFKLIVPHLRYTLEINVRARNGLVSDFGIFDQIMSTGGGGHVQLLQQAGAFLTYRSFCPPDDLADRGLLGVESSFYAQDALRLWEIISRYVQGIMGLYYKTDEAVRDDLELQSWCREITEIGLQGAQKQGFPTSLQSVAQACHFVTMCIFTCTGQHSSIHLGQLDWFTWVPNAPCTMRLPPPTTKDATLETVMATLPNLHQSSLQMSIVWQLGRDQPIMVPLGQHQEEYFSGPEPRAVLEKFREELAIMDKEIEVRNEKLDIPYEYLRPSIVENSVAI", "type": "biochemical", "method": "IC50's may be determined by standard methods. One particular method is a colorimetric assay in which the putative inhibitor is pre-incubated with the 15-LO enzyme for about 10 minutes followed by addition of linoleic acid substrate for an additional 10 minutes. The product, 13-HPODE, is quantitated by coupling the reduction of the hydroperoxylated lipid to the oxidation on N-benzoyl-leucomethylene blue in the presence of hemin at pH 5. The absorbance of the oxidized methylene blue is directly proportional to the amount of 13-HPODE formed by the 15-LO, and can be measured in the presence and absence of inhibitor."}, "[5]": {"tested_on": "ovariectomized (Ovx) rats", "experiment": "Estrogen deficiency Rat OVX osteopenia assay, BMD", "type": "in vivo", "method": "In order to determine the ability of inhibitors of 15-lipoxygenase to stimulate bone formation and bone accretion, [[[5-(5,6-difluoro-1H-indol-2-yl)-2-methoxyphenyl]amino]sulfonyl]-carbamic acid-isobutyl ester, Compound 6, was prepared as described in WO0196298 ) and tested in the standard estrogen deficiency Rat OVX osteopenia assay.\nThree month old rats are ovariectomized (Ovx) and administered 1 mg/kg/day Compound 6 or 0.1 ug/kg/day 1,25-dihydroxy vitamin D3 (positive control, abbreviated Vit. D in Table) by oral gavage once a day starting at 2 weeks post-ovariectomy and continuing for 7 weeks. The dose was increased to 2 mg/kg/day and continued until 11 weeks. Control groups, both sham (rats that were not ovariectomized) and Ovx, received vehicle only. The bone mineral density of the spine and right hip was determined by using the High Resolution Software package on a QDR-4500 Bone Densitometer^□ (Hologic, Walthan, Mass.). The animals were scanned by placing them in a supine position such that the right femur was perpendicular to the main body and the tibia was perpendicular to the femur. […]"}, "[6]": {"settings": "3 weeks treatment, 1 mg/kg/day oral gavage"}, "[7]": {"settings": "7 weeks treatment, 1 mg/kg/day oral gavage"}, "[8]": {"settings": "11 weeks treatment, dose increased to 2 mg/kg/day after 7 weeks, oral gavage"}, "[9]": {"settings": "7 weeks treatment, 0.1 ug/kg/day oral gavage (positive control)"}}, "note": "“Also recorded” adds a separate entry of the source.", "data": [{"smiles": "c1ccc2c(c1)SCc1c-2[nH]c2ccccc12", "note": "[Compound 2, 6,11-dihydro-5-thia-11-aza-benzo[a]fluorene]", "values": [{"measurement": "normalized activity of alkaline phosphatase", "setting": "[1]", "value": "most effective when added on Day 1"}, {"measurement": "calcium content", "setting": "[2]", "value": "most effective when added on Day 1"}, {"measurement": "Femoral Marrow area", "setting": "[3]", "value": "−7", "unit": "%"}, {"measurement": "Femoral Total area", "setting": "[3]", "value": "−4", "unit": "%"}]}, {"smiles": "COc1ccc(C(=O)Nc2ccc(Cl)c(Cl)c2)cc1N", "note": "[Compound 3, 3-amino-N-(3,4-dichlorophenyl)-4-methoxybenzamide]", "values": [{"measurement": "IC50", "setting": "[4]", "value": "~0.01", "unit": "µM"}, {"measurement": "normalized activity of alkaline phosphatase", "setting": "[1]", "value": "most effective when added on Day 11"}, {"measurement": "calcium content", "setting": "[2]", "value": "most effective when added on Day 11"}]}, {"smiles": "CCCCCCC#Cc1ccccc1/C=C/C(=O)O", "note": "[Compound 4, trans-3-(2-oct-1-ynyl-phenyl)-acrylic acid]", "values": [{"measurement": "IC50", "setting": "[4]", "value": "1 to 3", "unit": "µM"}]}, {"smiles": "CC(c1cc2ccccc2s1)N(O)C(N)=O", "note": "(stereo not drawn) [Compound 5, Zilueton]", "values": [{"measurement": "IC50 for 15-LO", "setting": "[4]; result in words", "value": "negative control"}, {"measurement": "alkaline phosphatase activity", "setting": "[1]; listed as Zileuton", "value": "lack ability to induce; also recorded: lack of a response"}, {"measurement": "culture calcium deposition (total calcium content)", "setting": "[2]; listed as Zileuton", "value": "lack ability to induce; also recorded: lack of a response"}]}, {"smiles": "COc1ccc(-c2cc3cc(F)c(F)cc3[nH]2)cc1NS(=O)(=O)NC(=O)OCC(C)C", "note": "[Compound 6, [[[5-(5,6-difluoro-1H-indol-2-yl)-2-methoxyphenyl]amino]sulfonyl]-carbamic acid-isobutyl ester]", "values": [{"measurement": "IC50", "setting": "[4]", "value": "0.025 to 0.083", "unit": "µM"}, {"measurement": "BMD Lumbar Spine L2-L4", "setting": "[5]; [6]", "value": "0.2347 (0.055) gm mineral/cm^2"}, {"measurement": "BMD Lumbar Spine L5", "setting": "[5]; [6]", "value": 0.2480, "unit": "gm mineral/cm^2"}, {"measurement": "BMD Proximal Femur", "setting": "[5]; [6]", "value": "0.2838 (0.103) gm mineral/cm^2"}, {"measurement": "BMD Lumbar Spine L2-L4", "setting": "[5]; [7]", "value": "0.2474 (0.019) gm mineral/cm^2"}, {"measurement": "BMD Lumbar Spine L5", "setting": "[5]; [7]", "value": 0.2549, "unit": "gm mineral/cm^2"}, {"measurement": "BMD Proximal Femur", "setting": "[5]; [7]", "value": "0.2932 (0.033) gm mineral/cm^2"}, {"measurement": "BMD Lumbar Spine L2-L4", "setting": "[5]; [8]", "value": "0.2507 (0.009) gm mineral/cm^2"}, {"measurement": "BMD Lumbar Spine L5", "setting": "[5]; [8]", "value": 0.2626, "unit": "gm mineral/cm^2"}, {"measurement": "BMD Proximal Femur", "setting": "[5]; [8]", "value": "0.2986 (0.039) gm mineral/cm^2"}, {"measurement": "BMD in the spine", "setting": "[5]; at >3 weeks, result in words", "value": "increased BMD"}, {"measurement": "BMD in the proximal femur", "setting": "[5]; at >7 weeks, result in words", "value": "increased BMD"}]}, {"smiles": "CCCCCC(O)c1cccc(OCc2ccc3ccccc3n2)c1", "note": "(stereo not drawn) [Rev-5901]", "values": [{"measurement": "alkaline phosphatase activity", "setting": "[1]", "value": "lack ability to induce; also recorded: lack of a response"}, {"measurement": "culture calcium deposition (total calcium content)", "setting": "[2]", "value": "lack ability to induce; also recorded: lack of a response"}]}, {"smiles": "C=C1/C(=C\\C=C2/CCC[C@]3(C)[C@@H]([C@H](C)CCCC(C)(C)O)CC[C@@H]23)C[C@@H](O)C[C@@H]1O", "note": "[Vit D, 1,25-dihydroxy vitamin D3, reference compound]", "values": [{"measurement": "BMD Lumbar Spine L2-L4", "setting": "[5]; [9]", "value": "0.2628 (0.023) gm mineral/cm^2"}, {"measurement": "BMD Lumbar Spine L5", "setting": "[5]; [9]", "value": 0.2742, "unit": "gm mineral/cm^2"}]}]}
